Patent US20220242879A1, “FUSED HETEROCYCLE DERIVATIVES” (Janssen Sciences Ireland Unlimited Company, priority 2019, published 2022)

Experiments:
HBV = test: Anti-HBV activity, HepG2.117 cell line, intracellular HBV DNA by real-time PCR; type: cell-based, Hepatitis B virus; conditions: Hepatitis B virus, 72 h; mean value; HepG2.117 cells, 3 days of treatment, intracellular HBV DNA; read-out: HBV-AVE-HepG2.117 EC50
Protocol: The anti HBV activity was measured using the HepG2.117 cell line, a stable, inducibly HBV producing cell line, which replicates HBV in the absence of doxicycline (Tet-off system). The HepG2 cell line is available from ATCC® under number HB-8065. Transfection of the HepG2 cell line can be as described in Sun and Nassal 2006 Journal of Hepatology 45 (2006) 636-645 “Stable HepG2- and Huh7-based human hepatoma cell lines for efficient regulated expression of infectious hepatitis B virus”.
For the antiviral assay, HBV replication was induced, followed by a treatment with serially diluted compound in 96-well plates. After 3 days of treatment, the antiviral activity was determined by, quantification of intracellular HBV DNA using real-time PCR and an HBV specific primer set and probe.

[1] = Cytotoxicity, ATPlite Luminescence Assay; type: cell-based, human; conditions: human, HepG2.117 cells; mean value; cells incubated for 3 days, viability by ATPlite; read-out: TOX-HepC2.117 CC50
Protocol: Cytotoxicity of the compounds was tested using HepG2 or HepG2.117 cells, incubated for 3 days in the presence of compounds. The viability of the cells was assessed using the PERKIN ELMER ATPlite Luminescence Assay System.”

Row | Structure (SMILES) | EC50 (HBV) [nM] | CC50 at 3 days [1] [nM]
1 | CNC(=O)[C@@H]1Cc2conc2-c2c3c(nn2C1)CCN(C(=O)c1ccc(Cl)c(Cl)c1)C3 (single isomer, unassigned) [Compound 30, (5′R)-11-(3,4-Dichlorobenzoyl)-N-methyl-5,6,9,10,11,12-hexahydro-4H-[1,2]oxazolo[3,4-c]-pyrido[4′,3′:3,4]pyrazolo[1,5-a]azepine-5-carboxamide] | 181 | > 50000
2 | CNC(=O)[C@H]1Cc2conc2-c2c3c(nn2C1)CCN(C(=O)c1ccc(Cl)c(Cl)c1)C3 (single isomer, unassigned) [Compound 31, (5*S)-11-(3,4-Dichlorobenzoyl)-N-methyl-5,6,9,10,11,12-hexahydro-4H-[1,2]oxazolo[3,4-c]pyrido[4′,3′:3,4]pyrazolo[1,5-a]azepine-5-carboxamide] | 47 | > 50000
3 | CNC(=O)[C@H]1Cc2conc2-c2c3c(nn2C1)C[C@@H](C)N(C(=O)c1ccc(Cl)c(Cl)c1)C3 (single isomer, unassigned) [Compound 48] | 19 | > 50000
4 | CNC(=O)[C@@H]1Cc2conc2-c2c3c(nn2C1)CCN(C(=O)c1ccc(Cl)c(Cl)c1)[C@@H]3C (single isomer, unassigned) [Compound 49] | 4640 | > 50000
5 | CNC(=O)[C@H]1Cc2conc2-c2c3c(nn2C1)CCN(C(=O)c1ccc(Cl)c(Cl)c1)[C@@H]3C (single isomer, unassigned) [Compound 50] | 8430 | > 50000
6 | O=C(c1ccc(Cl)c(Cl)c1)N1CCc2nn3c(c2C1)-c1nocc1CC3 [Compound 1, (3,4-Dichlorophenyl)(4,5,8,9-tetrahydro[1,2]oxazolo[3,4-c]pyrazolo[1,5-a:4,3-c′]dipyridin-10(11H)-yl)methanone] | 1130 | > 50000
7 | Cc1onc2c1CCn1nc3c(c1-2)CN(C(=O)c1ccc(Cl)c(Cl)c1)CC3 [Compound 2] | 921 | 41900
8 | CCc1onc2c1CCn1nc3c(c1-2)CN(C(=O)c1ccc(Cl)c(Cl)c1)CC3 [Compound 3, (3,4-dichlorophenyl)(3-ethyl-4,5,8,9-tetrahydro[1,2]oxazolo[3,4-c]pyrazolo[1,5-a:4,3-c′]dipyridin-10(11H)-yl)methanone] | 1440 | 47000
9 | O=C(c1ccc(Cl)c(Cl)c1)N1CCc2nn3c(c2C1)-c1noc(-c2ccccc2)c1CC3 [Compound 4, (3,4-Dichlorophenyl)(3-phenyl-4,5,8,9-tetrahydro[1,2]oxazolo[3,4-c]pyrazolo-[1,5-a:4,3-c′]dipyridin-10(11H)-yl)methanone] | > 10000 | > 10000
10 | C[C@@H]1Cc2nn3c(c2CN1C(=O)c1ccc(Cl)c(Cl)c1)-c1nocc1CC3 [Compound 5, (3,4-Dichlorophenyl)[(9R)-9-methyl-4,5,8,9-tetrahydro[1,2]oxazolo[3,4-c]-pyrazolo[1,5-a:4,3-c′]dipyridin-10(11H)-yl]methanone] | 279 | > 50000
11 | O=C(c1ccc(Cl)c(Cl)c1)N1CCc2nn3c(c2C1)-c1n[nH]cc1CC3 [Compound 6, (3,4-Dichlorophenyl)(2,4,5,8,9,11-hexahydro-10H-pyrazolo[3,4-c]pyrazolo[1,5-a:4,3-c′]-dipyridin-10-yl)methanone] | 208 | > 50000
12 | Cc1[nH]nc2c1CCn1nc3c(c1-2)CN(C(=O)c1ccc(Cl)c(Cl)c1)CC3 [Compound 7, (3,4-Dichlorophenyl)(3-methyl-2,4,5,8,9,11-hexahydro-10H-pyrazolo[3,4-c]pyrazolo-[1,5-a:4,3-c′]dipyridin-10-yl)methanone] | 1290 | > 50000
13 | Cn1cc2c(n1)-c1c3c(nn1CC2)CCN(C(=O)c1ccc(Cl)c(Cl)c1)C3 [Compound 8, (3,4-Dichlorophenyl)(2-methyl-2,4,5,8,9,11-hexahydro-10H-pyrazolo[3,4-c]pyrazolo-[1,5-a:4,3-c]dipyridin-10-yl)methanone] | 2550 | > 50000
14 | Cn1ncc2c1-c1c3c(nn1CC2)CCN(C(=O)c1ccc(Cl)c(Cl)c1)C3 [Compound 9, (3,4-Dichlorophenyl)(1-methyl-1,4,5,8,9,11-hexahydro-10H-pyrazolo[3,4-c]pyrazolo-[1,5-a:4,3-c′]dipyridin-10-yl)methanone] | > 50000 | > 50000
15 | Cc1nc2c(s1)CCn1nc3c(c1-2)CN(C(=O)c1ccc(Cl)c(Cl)c1)CC3 [Compound 10, (3,4-Dichlorophenyl)(2-methyl-4,8,9,11-tetrahydro[1,3]thiazolo[4,5-c]pyrazolo[1,5-a:4,3-c′]-dipyridin-10(5H)-yl)methanone] | 8060 | > 10000
16 | O=C(c1ccc(Cl)c(Cl)c1)N1CCc2nn3c(c2C1)-c1nocc1CCC3 [Compound 11] | 300 | > 46200
17 | Cc1onc2c1CCCn1nc3c(c1-2)CN(C(=O)c1ccc(Cl)c(Cl)c1)CC3 [Compound 12, (3,4-Dichlorophenyl)(3-methyl-5,6,9,10-tetrahydro-4H-[1,2]oxazolo[3,4-c]pyrido[4′,3′:3,4]-pyrazolo[1,5-a]azepin-11(12H)-yl)methanone] | 835 | 31100
18 | CCc1onc2c1CCCn1nc3c(c1-2)CN(C(=O)c1ccc(Cl)c(Cl)c1)CC3 [Compound 13, (3,4-Dichlorophenyl)(3-ethyl-5,6,9,10-tetrahydro-4H-[1,2]oxazolo[3,4-c]-pyrido[4′,3′:3,4]pyrazolo[1,5-a]azepin-11(12H)-yl)methanone] | 2940 | 26600
19 | C[C@@H]1Cc2nn3c(c2CN1C(=O)c1ccc(Cl)c(Cl)c1)-c1nocc1CCC3 [Compound 14, (3,4-dichlorophenyl)[(10R)-10-methyl-5,6,9,10-tetrahydro-4H-[1,2]oxazolo-[3,4-c]pyrido[4′,3′:3,4]pyrazolo[1,5-a]azepin-11(12H)-yl]methanone] | 213 | 39200
20 | Cc1onc2c1CCCn1nc3c(c1-2)CN(C(=O)c1ccc(Cl)c(Cl)c1)[C@H](C)C3 [Compound 15, (3,4-dichlorophenyl)[(10R)-3,10-dimethyl-5,6,9,10-tetrahydro-4H-[1,2]oxazolo-[3,4-c]pyrido[4′,3′:3,4]pyrazolo[1,5-a]azepin-11(12H)-yl]methanone] | 934 | > 43500
21 | O=C(c1ccc(Cl)c(Cl)c1)N1CCc2nn3c(c2C1)-c1noc(C(F)(F)F)c1CCC3 [Compound 16, (3,4-Dichlorophenyl)[3-(trifluoromethyl)-5,6,9,10-tetrahydro-4H-[1,2]oxazolo[3,4-c]pyrido[4′,3′:3,4]pyrazolo[1,5-a]azepin-11(12H)-yl]methanone] | 1620 | > 50000
22 | C=C1Cc2conc2-c2c3c(nn2C1)CCN(C(=O)c1ccc(Cl)c(Cl)c1)C3 [Compound 17, (3,4-Dichlorophenyl)(5-methylidene-5,6,9,10-tetrahydro-4H-[1.2]oxazolo[3,4-c]pyrido-[4′,3′:3,4]pyrazolo[1,5-a]azepin-11(12H)-yl)methanone] | 248 | 24700
23 | O=C(c1ccc(Cl)c(Cl)c1)N1CCc2nn3c(c2C1)-c1nocc1CC(O)(CO)C3 (centres unmarked) [Compound 18, (3,4-Dichlorophenyl)[5-hydroxy-5-(hydroxymethyl)-5,6,9,10-tetrahydro-4H-[1,2]oxazolo-[3,4-c]pyrido[4′,3′:3,4]pyrazolo[1,5-a]azepin-11(12H)-yl]methanone] | 1050 | > 50000
24 | O=C(c1ccc(Cl)c(Cl)c1)N1CCc2nn3c(c2C1)-c1nocc1CC(O)C3 (centres unmarked) [Compound 19, (3,4-Dichlorophenyl)(5-hydroxy-5,6,9,10-tetrahydro-4H-isoxazolo[3,4-c]pyrido[4′,3′:3,4]pyrazolo[1,5-a]azepin-11(12H)-yl)methanone] | 263 | > 50000
25 | COC1Cc2conc2-c2c3c(nn2C1)CCN(C(=O)c1ccc(Cl)c(Cl)c1)C3 (centres unmarked) [Compound 20, (3,4-Dichlorophenyl)(5-methoxy-5,6,9,10-tetrahydro-4H-isoxazolo[3,4-c]pyrido[4′,3′:3,4]-pyrazolo[1,5-a]azepin-11(12H)-yl)methanone] | 300 | > 50000
26 | CNC(=O)C1(O)Cc2conc2-c2c3c(nn2C1)CCN(C(=O)c1ccc(Cl)c(Cl)c1)C3 (centres unmarked) [Compound 22, 11-(3,4-Dichlorobenzoyl)-S-hydroxy-N-methyl-5,6,9,10,11,12-hexahydro-4H-[1,2]oxazolo-[3,4-c]pyrido[4′,3′:3,4]pyrazolo[1,5-a]azepine-5-carboxamide] | 130 | > 50000
27 | C=C1Cc2c(noc2N)-c2c3c(nn2C1)CCN(C(=O)c1ccc(Cl)c(Cl)c1)C3 [Compound 23, (3-Amino-5-methylidene-5,6,9,10-tetrahydro-4H-[1,2]oxazolo[3,4-c]pyrido[4′,3′:3,4]pyrazolo-[1,5-a]azepin-11(12H)-yl)(3,4-dichlorophenyl)methanone] | 172 | 21200
28 | Nc1onc2c1CC(O)(CO)Cn1nc3c(c1-2)CN(C(=O)c1ccc(Cl)c(Cl)c1)CC3 (centres unmarked) [Compound 24, [3-Amino-5-hydroxy-5-(hydroxymethyl)-5,6,9,10-tetrahydro-4H-[1,2]oxazolo[3,4-c]pyrido-[4′,3′:3,4]pyrazolo[1,5-a]azepin-11(12H)-yl](3,4-dichlorophenyl)methanone] | 1590 | > 50000
